One experiment deals with T1, CBP (Homo sapiens, UniProt Q92793).
T1 construct: endogenous in cells; host or cells: 22Rv1 (ATCC CRL-2505) human prostate cancer cells
The experiment can be described thus: CBP degradation in 22Rv1 cells (5 h). The experiment is classed as cell-based. As to conditions: 22Rv1 cells, 5 h; for Dmax: 22Rv1, 5 h, read-out: CBP Degradation (22Rv1, 5 h) DCmax. An excerpt:
Biological Assays. […] Cells with 3-8 passages after purchase were used in experiments.

The next experiment concerns 22Rv1 cells. Description: Cell growth inhibition assay (CellTiter-Glo) in 22Rv1. To be noted: 22Rv1 cells, 96 h incubation, read-out: Cell Growth Inhibition (IC50) 22Rv1. Format: cell-based, human. How it is done: Biological Assays. CBP/p300 degradation activity and cell growth inhibition were evaluated in the human prostate cancer cell line 22Rv1 (ATCC© CRL-2505™) purchased from the American Type Culture Collection (ATCC), Manassas, VA, and maintained and cultured in Dulbecco's Modified Eagle's medium (DMEM) containing 10% fetal bovine serum, 1 unit/ml of penicillin and 1 μg/ml of streptomycin. Cells with 3-8 passages after purchase were used in experiments.
Cell Growth Inhibition Assay Protocol. 22RV1 cells were seeded at a concentration of 4000 cells/well in 100 μl culture medium and 2 μl of test compound (final concentration start from 10 μM and 3 times dilution) into 96 well microplates (Corning 3903). The cell cultures were incubated for 96 h at +37° C. and 5% CO2. The plate and its contents were equilibrated to room temperature for approximately 30 minutes. 100 μl of CellTiter-Glo® 2.0 Reagent equal to the volume of cell culture medium present was added in each well. The contents were mixed for 2 minutes on an orbital shaker. The plate was allowed to incubate at room temperature for 10 minutes. The luminescence was recorded. The data was analyzed by Prism GraphPad 8.
On the technique in general: In ATP-based viability assays light output follows the ATP content of the culture.

For another experiment, the system named is HL60. Description: Cell growth inhibition in HL60. Format: cell-based. As to conditions: read-out: Cell Growth Inhibition (IC50) HL60.
Setting [1] is: Homo sapiens, HL-60, HL60 cells.

Like-named read-outs stand apart in the source and are kept apart here.

A word on the DC50: it is the concentration at which degradation of the target reaches its halfway point. Low values mean a more potent degrader, high ones a less potent degrader. A word on the IC50: it is the concentration needed to halve the response being measured.

T1 sequence (Q92793 whole entry): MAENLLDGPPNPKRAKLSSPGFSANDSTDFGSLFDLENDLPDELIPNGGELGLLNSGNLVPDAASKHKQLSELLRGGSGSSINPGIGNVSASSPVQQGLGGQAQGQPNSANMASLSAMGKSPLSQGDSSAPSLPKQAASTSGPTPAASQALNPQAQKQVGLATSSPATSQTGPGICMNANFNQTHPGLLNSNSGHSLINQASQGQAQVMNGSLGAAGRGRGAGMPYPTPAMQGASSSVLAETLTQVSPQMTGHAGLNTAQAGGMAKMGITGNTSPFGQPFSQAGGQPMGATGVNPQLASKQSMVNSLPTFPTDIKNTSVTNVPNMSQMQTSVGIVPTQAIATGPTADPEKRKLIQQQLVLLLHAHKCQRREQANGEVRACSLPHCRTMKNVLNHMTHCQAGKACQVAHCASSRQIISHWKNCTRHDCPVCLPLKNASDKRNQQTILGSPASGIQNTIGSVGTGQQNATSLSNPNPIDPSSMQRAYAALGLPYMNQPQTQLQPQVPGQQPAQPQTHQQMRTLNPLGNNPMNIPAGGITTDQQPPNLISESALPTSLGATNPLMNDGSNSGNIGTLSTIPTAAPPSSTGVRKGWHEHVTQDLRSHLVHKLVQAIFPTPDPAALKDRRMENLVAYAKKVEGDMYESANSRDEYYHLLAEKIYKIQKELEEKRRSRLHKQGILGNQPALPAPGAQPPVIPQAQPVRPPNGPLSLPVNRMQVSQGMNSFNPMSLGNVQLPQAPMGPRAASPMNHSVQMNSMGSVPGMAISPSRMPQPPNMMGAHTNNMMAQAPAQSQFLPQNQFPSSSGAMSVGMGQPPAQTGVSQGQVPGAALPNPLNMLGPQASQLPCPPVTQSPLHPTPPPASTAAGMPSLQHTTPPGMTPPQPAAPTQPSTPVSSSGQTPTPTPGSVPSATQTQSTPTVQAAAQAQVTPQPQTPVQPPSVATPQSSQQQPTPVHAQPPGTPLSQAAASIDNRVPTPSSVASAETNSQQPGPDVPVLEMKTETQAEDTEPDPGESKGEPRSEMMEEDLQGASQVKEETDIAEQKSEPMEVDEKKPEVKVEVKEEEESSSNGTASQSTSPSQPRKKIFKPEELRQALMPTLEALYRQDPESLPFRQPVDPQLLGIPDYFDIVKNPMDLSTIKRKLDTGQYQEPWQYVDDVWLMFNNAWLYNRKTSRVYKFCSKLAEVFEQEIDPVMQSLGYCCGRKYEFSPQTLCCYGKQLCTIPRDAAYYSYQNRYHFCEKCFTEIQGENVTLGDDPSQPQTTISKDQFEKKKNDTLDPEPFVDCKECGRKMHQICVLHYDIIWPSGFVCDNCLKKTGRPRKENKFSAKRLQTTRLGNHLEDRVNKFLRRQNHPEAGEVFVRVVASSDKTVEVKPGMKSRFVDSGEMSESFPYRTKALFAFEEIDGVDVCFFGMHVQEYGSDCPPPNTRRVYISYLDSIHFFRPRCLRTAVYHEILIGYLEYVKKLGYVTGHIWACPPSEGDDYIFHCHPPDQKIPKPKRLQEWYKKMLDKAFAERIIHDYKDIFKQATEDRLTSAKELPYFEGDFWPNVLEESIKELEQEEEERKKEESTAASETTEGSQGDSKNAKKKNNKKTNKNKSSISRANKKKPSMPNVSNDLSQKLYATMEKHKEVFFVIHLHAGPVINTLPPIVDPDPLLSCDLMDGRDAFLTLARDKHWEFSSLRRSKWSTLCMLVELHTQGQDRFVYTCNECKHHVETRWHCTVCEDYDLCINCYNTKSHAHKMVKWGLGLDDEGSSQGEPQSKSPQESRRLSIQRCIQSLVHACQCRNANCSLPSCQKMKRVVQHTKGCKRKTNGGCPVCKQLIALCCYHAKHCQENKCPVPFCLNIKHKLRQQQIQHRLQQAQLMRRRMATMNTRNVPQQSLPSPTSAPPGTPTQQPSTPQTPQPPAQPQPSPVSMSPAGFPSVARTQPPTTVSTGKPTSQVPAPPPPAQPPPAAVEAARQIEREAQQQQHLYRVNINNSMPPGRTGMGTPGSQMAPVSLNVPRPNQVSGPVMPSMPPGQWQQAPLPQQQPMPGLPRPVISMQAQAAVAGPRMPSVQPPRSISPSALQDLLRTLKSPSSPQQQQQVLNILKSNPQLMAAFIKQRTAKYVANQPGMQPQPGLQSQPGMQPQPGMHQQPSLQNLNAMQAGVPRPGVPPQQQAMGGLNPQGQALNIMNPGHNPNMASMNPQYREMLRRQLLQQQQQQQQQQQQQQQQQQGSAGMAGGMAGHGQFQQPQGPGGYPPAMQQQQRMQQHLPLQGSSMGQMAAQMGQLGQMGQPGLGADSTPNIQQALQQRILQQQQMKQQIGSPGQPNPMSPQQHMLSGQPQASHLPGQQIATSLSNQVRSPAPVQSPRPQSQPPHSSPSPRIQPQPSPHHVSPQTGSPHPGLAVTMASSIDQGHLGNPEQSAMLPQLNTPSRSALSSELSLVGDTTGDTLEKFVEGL

With `CC(=O)N1CCc2c(c(N3CCCc4cc(-c5cnn(C)c5)c(C(F)F)cc43)nn2C2CCC(C(=O)N3Cc4cc5c(cc4C3)C(=O)N(C3CCC(=O)NC3=O)C5=O)CC2)C1` (stereo not drawn) [CP-034, 6-(4-(5-acetyl-3-(7-(difluoromethyl)-6-(1-methyl-1H-pyrazol-4-yl)-3,4-dihydroquinolin-1(2H)-yl)-4,5,6,7-tetrahydro-1H-pyrazolo[4,3-c]pyridin-1-yl)cyclohexane-1-carbonyl)-2-(2,6-dioxopiperidin-3-yl)-6,7-dihydropyrrolo[3,4-f]isoindole-1,3(2H,5H)-dione], on CBP, the “CBP Degradation (22Rv1, 5 h) DCmax” value is reported as “+++ (>90% = +++)” and the DC50 was less than 10 nM. Further, in the experiment on 22Rv1 cells, the IC50 is less than 1000 nM. In addition, the 50% inhibitory concentration (IC50) in the experiment with HL60 (HL60 cells) was less than 100 nM.
In the case of `CC(=O)N1CCc2c(c(N3CCCc4cc(-c5cnn(C)c5)c(C(F)F)cc43)nn2C2CCC(C(=O)N3CCc4cc5c(cc4C3)C(=O)N(C3CCC(=O)NC3=O)C5=O)CC2)C1` (stereo not drawn) [CP-035, 6-(4-(5-acetyl-3-(7-(difluoromethyl)-6-(1-methyl-1H-pyrazol-4-yl)-3,4-dihydroquinolin-1(2H)-yl)-4,5,6,7-tetrahydro-1H-pyrazolo[4,3-c]pyridin-1-yl)cyclohexane-1-carbonyl)-2-(2,6-dioxopiperidin-3-yl)-5,6,7,8-tetrahydro-1H-pyrrolo[3,4-g]isoquinoline-1,3(2H)-dione], on CBP, the “CBP Degradation (22Rv1, 5 h) DCmax” value is recorded as “+ (>50% =)” and the DC50 was less than 100 nM. In addition, the half-maximal inhibitory concentration (IC50) in the experiment on 22Rv1 cells is less than 10000 nM. In addition, the IC50 with HL60 (HL60 cells) is less than 1000 nM.
The like results for `CC(=O)N1CCc2c(c(N3CCCc4cc(-c5cnn(C)c5)c(C(F)F)cc43)nn2C2CCC(C(=O)N3CCc4cc5c(cc4C3)C(=O)N(C3CCC(=O)NC3=O)C5=O)CC2)C1` (stereo not drawn) [CP-036, 6-(4-(5-acetyl-3-(7-(difluoromethyl)-6-(1-methyl-1H-pyrazol-4-yl)-3,4-dihydroquinolin-1(2H)-yl)-4,5,6,7-tetrahydro-1H-pyrazolo[4,3-c]pyridin-1-yl)cyclohexane-1-carbonyl)-2-(2,6-dioxopiperidin-3-yl)-5,6,7,8-tetrahydro-1H-pyrrolo[3,4-g]isoquinoline-1,3(2H)-dione] were, in that order, “+++ (>90% = +++)”, less than 10 nM, less than 1000 nM and less than 100 nM.
As to `CCC(=O)N1CCc2c(c(N3CCCc4cc(-c5cnn(C)c5)c(C(F)F)cc43)nn2C2CCN(C(=O)CN3Cc4cc5c(cc4C3)C(=O)N(C3CCC(=O)NC3=O)C5=O)CC2)C1` (stereo not drawn) [CP-055, 6-(2-(4-(3-(7-(difluoromethyl)-6-(1-methyl-1H-pyrazol-4-yl)-3,4-dihydroquinolin-1(2H)-yl)-5-propionyl-4,5,6,7-tetrahydro-1H-pyrazolo[4,3-c]pyridin-1-yl)piperidin-1-yl)-2-oxoethyl)-2-(2,6-dioxopiperidin-3-yl)-6,7-dihydropyrrolo[3,4-f]isoindole-1,3(2H,5H)-dione], the Dmax at CBP was greater than 70%. The same compound registered a DC50 at CBP of less than 10 nM. Moreover, the IC50 in the experiment with 22Rv1 cells (Homo sapiens, 22Rv1, 96 h) is less than 1000 nM; in the experiment with HL60 (setting [1]), less than 1000 nM.
On to `CC(=O)N1CCc2c(c(N3CCCc4cc(-c5cnn(CCCCCN6Cc7cc8c(cc7C6)C(=O)N(C6CCC(=O)NC6=O)C8=O)c5)c(C(F)F)cc43)nn2C2CCOCC2)C1` (stereo not drawn) [CP-067, 6-(5-(4-(1-(5-acetyl-1-(tetrahydro-2H-pyran-4-yl)-4,5,6,7-tetrahydro-1H-pyrazolo[4,3-c]pyridin-3-yl)-7-(difluoromethyl)-1,2,3,4-tetrahydroquinolin-6-yl)-1H-pyrazol-1-yl)pentyl)-2-(2,6-dioxopiperidin-3-yl)-6,7-dihydropyrrolo[3,4-f]isoindole-1,3(2H,5H)-dione], for which, on CBP, the Dmax is greater than 90% and the DC50 is less than 10 nM. For the same compound, the concentration for half-maximal inhibition (IC50) in the experiment with 22Rv1 cells (Homo sapiens, 22Rv1, 96 h) is less than 100 nM. Also, the IC50 in the experiment on HL60 (setting [1]) is less than 100 nM.
`CC(=O)N1CCc2c(c(N3CCCc4cc(-c5cnn(CCCCN6Cc7cc8c(cc7C6)C(=O)N(C6CCC(=O)NC6=O)C8=O)c5)c(C(F)F)cc43)nn2C2CCOCC2)C1` (stereo not drawn) [CP-068, 6-(4-(4-(1-(5-acetyl-1-(tetrahydro-2H-pyran-4-yl)-4,5,6,7-tetrahydro-1H-pyrazolo[4,3-c]pyridin-3-yl)-7-(difluoromethyl)-1,2,3,4-tetrahydroquinolin-6-yl)-1H-pyrazol-1-yl)butyl)-2-(2,6-dioxopiperidin-3-yl)-6,7-dihydropyrrolo[3,4-f]isoindole-1,3(2H,5H)-dione]: the Dmax on CBP is greater than 90%. The DC50 at CBP was less than 10 nM. Moreover, the half-inhibitory concentration (IC50) with 22Rv1 cells (Homo sapiens, 22Rv1, 96 h) is less than 100 nM; in the experiment on HL60 (setting [1]) it was less than 100 nM.
Take `CC(=O)N1CCc2c(c(N3CCCc4cc(-c5cnn(CCCCCN6CCc7cc8c(cc7C6)C(=O)N(C6CCC(=O)NC6=O)C8=O)c5)c(C(F)F)cc43)nn2C2CCOCC2)C1` (stereo not drawn) [CP-069, 6-(5-(4-(1-(5-acetyl-1-(tetrahydro-2H-pyran-4-yl)-4,5,6,7-tetrahydro-1H-pyrazolo[4,3-c]pyridin-3-yl)-7-(difluoromethyl)-1,2,3,4-tetrahydroquinolin-6-yl)-1H-pyrazol-1-yl)pentyl)-2-(2,6-dioxopiperidin-3-yl)-5,6,7,8-tetrahydro-1H-pyrrolo[3,4-g]isoquinoline-1,3(2H)-dione]: on CBP, the Dmax was greater than 70% and the DC50 is less than 10 nM. For the same compound, the half-inhibitory concentration (IC50) in the experiment on 22Rv1 cells (Homo sapiens, 22Rv1, 96 h) is less than 1000 nM. The IC50 in the experiment on HL60 (setting [1]) was less than 100 nM.
The like results for `CC(=O)N1CCc2c(c(N3CCCc4cc(-c5cnn(CCCCN6CCc7cc8c(cc7C6)C(=O)N(C6CCC(=O)NC6=O)C8=O)c5)c(C(F)F)cc43)nn2C2CCOCC2)C1` (stereo not drawn) [CP-070, 6-(4-(4-(1-(5-acetyl-1-(tetrahydro-2H-pyran-4-yl)-4,5,6,7-tetrahydro-1H-pyrazolo[4,3-c]pyridin-3-yl)-7-(difluoromethyl)-1,2,3,4-tetrahydroquinolin-6-yl)-1H-pyrazol-1-yl)butyl)-2-(2,6-dioxopiperidin-3-yl)-5,6,7,8-tetrahydro-1H-pyrrolo[3,4-g]isoquinoline-1,3(2H)-dione] were, in that order, greater than 70%, less than 10 nM, less than 1000 nM and less than 100 nM.
For `CC(=O)N1CCc2c(c(N3CCCc4cc(-c5cnn(C6CCN(C(=O)CN7CCc8cc9c(cc8C7)C(=O)N(C7CCC(=O)NC7=O)C9=O)CC6)c5)c(C(F)F)cc43)nn2C2CCOCC2)C1` (stereo not drawn) [CP-071, 6-(2-(4-(4-(1-(5-acetyl-1-(tetrahydro-2H-pyran-4-yl)-4,5,6,7-tetrahydro-1H-pyrazolo[4,3-c]pyridin-3-yl)-7-(difluoromethyl)-1,2,3,4-tetrahydroquinolin-6-yl)-1H-pyrazol-1-yl)piperidin-1-yl)-2-oxoethyl)-2-(2,6-dioxopiperidin-3-yl)-5,6,7,8-tetrahydro-1H-pyrrolo[3,4-g]isoquinoline-1,3(2H)-dione], at CBP, the Dmax is greater than 90%. Moreover, the DC50 at CBP is less than 10 nM. Besides, the concentration for half-maximal inhibition (IC50) with 22Rv1 cells (Homo sapiens, 22Rv1, 96 h) is less than 1000 nM; in the experiment with HL60 (setting [1]), less than 100 nM.
